According to patent US11298314B2, “Injectable composition for localized fat reduction without pain, edema, and side effects, and method for preparing same” (AMI PHARM CO., LTD., priority 2017, dated 2022):

Tests used:
paw of the rats = experiment: Rat paw edema; assay type: in vivo, Sprague Dawley rats; conditions: for degree of edema in words: 2 hours after administration, rat paw; for degree of edema, 1 hour after administration / degree of edema, 2 hours after administration / degree of edema, Immediately after administration: 0.1 ml into rat paw
Method: (§1) To evaluate the degree of edema, each test compositions described above were injected into the paw of the rats. Specifically, male Sprague Dawley rats (6 weeks old) were purchased and used after one week of adaptation. The rats (body weight: 170˜200 g) were randomly selected and the thickness of the rat paw were measured with a caliper before the administration of the test compositions. In order to observe the edema, 0.1 ml of PBS and the various test compositions were administered to the paws of the rats. Measurements of the […] were performed by a caliper immediately before the injection, immediately after the injection, and 1 or 2 hours after the injection. In addition, when the thickness was measured, the skin lesion of the injection site was observed by photographing the sole of the paw (using a 4×4 cm scale).
The degree of edema was evaluated as 0 to 4 grades.

[1] = Formulation stability of PPC injectable preparations: property, transparency, particle size, pH; conditions: for bile acid/PPC molar ratio below which a substantially stable formulation did not occur: PPC 5.0%; for bile acid concentration at which stable injectable preparations can be made: based on PPC 5.0%
sole of the rat paws = experiment: Measurement of skin lesion (erythema) on rat paw; assay type: in vivo, Sprague Dawley rats; conditions: for skin lesion (erythema) in words: 2 hours after administration;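 for grade of skin lesion (erythema), 1 hour after administration: grades − to ++++ mean no to extremely severe erythema versus before injection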;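 for grade of skin lesion (erythema), 2 hours after administration: grades − to ++++ mean no to extremely severe erythema versus before injection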;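 for grade of skin lesion (erythema), Immediately after administration: grades − to ++++ mean no to extremely severe erythema versus before injection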
Method: as §1
The grades of skin lesion were evaluated as 0 to 4 grades.

[2] = test system: tissues of the injected area (rat paw); experiment: H&E staining histological test (inflammation) of injected rat paw; assay type: in vivo, Sprague Dawley rats; conditions: for Inflammation (H&E), BA % (w/v) 1.0: bile acid single composition 1.0% (w/v), injected rat paw
Method: The tissues of the injected area were dissected, fixed with 10% formalin, and then the specimen was prepared and images were captured using an optical microscope. The degree of inflammation was evaluated as follows.

[3] = bile acid single composition 1.0% (w/v)
[4] = bile acid single composition 2.5% (w/v)
[5] = bile acid single composition 5.0% (w/v)
[6] = bile acid single composition 7.5% (w/v)

| bile acid/PPC molar ratio below which a substantially stable formulation did not occur [1] | bile acid concentration at which stable injectable preparations can be made [1] [%] | grade of skin lesion (erythema), 1 hour after administration (sole of the rat paws; [3]) | grade of skin lesion (erythema), 2 hours after administration (sole of the rat paws; [3]) | grade of skin lesion (erythema), Immediately after administration (sole of the rat paws; [3]) | grade of skin lesion (erythema), 1 hour after administration (sole of the rat paws; [4]) | grade of skin lesion (erythema), 2 hours after administration (sole of the rat paws; [4]) | grade of skin lesion (erythema), Immediately after administration (sole of the rat paws; [4]) | Structure (SMILES) | degree of edema, 1 hour after administration (paw of the rats; [3]) | degree of edema, 2 hours after administration (paw of the rats; [3]) | degree of edema, Immediately after administration (paw of the rats; [3]) | degree of edema, 1 hour after administration (paw of the rats; [4]) | degree of edema, 2 hours after administration (paw of the rats; [4]) | degree of edema, Immediately after administration (paw of the rats; [4]) | degree of edema, 1 hour after administration (paw of the rats; [5]) | degree of edema, 2 hours after administration (paw of the rats; [5]) | degree of edema, Immediately after administration (paw of the rats; [5]) | degree of edema, 1 hour after administration (paw of the rats; [6]) | degree of edema, 2 hours after administration (paw of the rats; [6]) | degree of edema, Immediately after administration (paw of the rats; [6]) | also measured |
| --- | --- | --- | --- | --- | --- | --- | --- | --- | --- | --- | --- | --- | --- | --- | --- | --- | --- | --- | --- | --- | --- |
| less than 0.95 | ≥ 2.3 | + | + | + | +++ | +++ | + | C[C@H](CCC(=O)O)[C@H]1CC[C@H]2[C@@H]3C[C@H](O)[C@@H]4C[C@H](O)CC[C@]4(C)[C@H]3CC[C@]12C [HDCA, (4R)-4-[(3R,5R,6S,8S,9S,10R,13R,14S,17R)-3,6-dihydroxy-10,13-dimethyl-2,3,4,5,6,7,8,9,11,12,14,15,16,17-tetradecahydro-1H-cyclopenta[a]phenanthren-17-yl]pentanoic acid] | ++ (moderate edema [++, (the degree of swelling was 20-40% compared to before the injection)]) | +++ (severe edema [+++, (the degree of swelling was 40-60% compared to before the injection)]) | ++ (moderate edema [++, (the degree of swelling was 20-40% compared to before the injection)]) | ++ (moderate edema [++, (the degree of swelling was 20-40% compared to before the injection)]) | +++ (severe edema [+++, (the degree of swelling was 40-60% compared to before the injection)]) | ++ (moderate edema [++, (the degree of swelling was 20-40% compared to before the injection)]) | ++++ (extremely severe edema [++++, (the degree of swelling was 60% or more compared to before the injection)]) | ++++ (extremely severe edema [++++, (the degree of swelling was 60% or more compared to before the injection)]) | ++ (moderate edema [++, (the degree of swelling was 20-40% compared to before the injection)]) | ++++ (extremely severe edema [++++, (the degree of swelling was 60% or more compared to before the injection)]) | ++++ (extremely severe edema [++++, (the degree of swelling was 60% or more compared to before the injection)]) | ++ (moderate edema [++, (the degree of swelling was 20-40% compared to before the injection)]) | degree of edema in words (paw of the rats; listed as HDCA 2.5%): “severe” and “extremely severe”; skin lesion (erythema) in words (sole of the rat paws; listed as HDCA 1.0%): Mild; skin lesion (erythema) in words (sole of the rat paws; listed as HDCA 2.5%): “severe” and “extremely severe”; grade of skin lesion (erythema), 1 hour after administration (sole of the rat paws; [5]): ++++; grade of skin lesion (erythema), 2 hours after administration (sole of the rat paws; [5]): ++++; grade of skin lesion (erythema), Immediately after administration (sole of the rat paws; [5]): +; grade of skin lesion (erythema), 1 hour after administration (sole of the rat paws; [6]): ++++; grade of skin lesion (erythema), 2 hours after administration (sole of the rat paws; [6]): ++++; grade of skin lesion (erythema), Immediately after administration (sole of the rat paws; [6]): ++; Inflammation (H&E), BA % (w/v) 1.0 [2]: +++ |
| less than 0.74 | ≥ 2.3 | +++ | ++ | + | +++ | +++ | ++ | C[C@H](CCC(=O)NCCS(=O)(=O)O)[C@H]1CC[C@H]2C3CC[C@@H]4C[C@H](O)CC[C@]4(C)[C@H]3C[C@H](O)[C@]12C (stereo partly drawn) [TDCA, 2-[[(4R)-4-[(3R,5R,9S,10S,12S,13R,14S,17R)-3,12-dihydroxy-10,13-dimethyl-2,3,4,5,6,7,8,9,11,12,14,15,16,17-tetradecahydro-1H-cyclopenta[a]phenanthren-17-yl]pentanoyl]amino]ethanesulfonic acid] | +++ (severe edema [+++, (the degree of swelling was 40-60% compared to before the injection)]) | +++ (severe edema [+++, (the degree of swelling was 40-60% compared to before the injection)]) | ++ (moderate edema [++, (the degree of swelling was 20-40% compared to before the injection)]) | +++ (severe edema [+++, (the degree of swelling was 40-60% compared to before the injection)]) | +++ (severe edema [+++, (the degree of swelling was 40-60% compared to before the injection)]) | ++ (moderate edema [++, (the degree of swelling was 20-40% compared to before the injection)]) | ++++ (extremely severe edema [++++, (the degree of swelling was 60% or more compared to before the injection)]) | ++++ (extremely severe edema [++++, (the degree of swelling was 60% or more compared to before the injection)]) | ++ (moderate edema [++, (the degree of swelling was 20-40% compared to before the injection)]) | ++++ (extremely severe edema [++++, (the degree of swelling was 60% or more compared to before the injection)]) | ++++ (extremely severe edema [++++, (the degree of swelling was 60% or more compared to before the injection)]) | ++ (moderate edema [++, (the degree of swelling was 20-40% compared to before the injection)]) | degree of edema in words (paw of the rats; listed as TDCA 2.5%): “severe” and “extremely severe”; skin lesion (erythema) in words (sole of the rat paws; listed as TDCA 1.0%): Moderate; skin lesion (erythema) in words (sole of the rat paws; listed as TDCA 2.5%): “severe” and “extremely severe”; grade of skin lesion (erythema), 1 hour after administration (sole of the rat paws; [5]): ++++; grade of skin lesion (erythema), 2 hours after administration (sole of the rat paws; [5]): ++++; grade of skin lesion (erythema), Immediately after administration (sole of the rat paws; [5]): ++; grade of skin lesion (erythema), 1 hour after administration (sole of the rat paws; [6]): ++++; grade of skin lesion (erythema), 2 hours after administration (sole of the rat paws; [6]): ++++; grade of skin lesion (erythema), Immediately after administration (sole of the rat paws; [6]): ++; Inflammation (H&E), BA % (w/v) 1.0 [2]: ++; degree of inflammation (H&E) in words ([2]; rats sacrificed at 3 hours, injected paw): Moderate |
| less than 1.12 | ≥ 2.7 | ++ | ++ | + | ++ | +++ | ++ | C[C@H](CCC(=O)O)[C@H]1CC[C@H]2[C@@H]3[C@@H](O)C[C@@H]4C[C@H](O)CC[C@]4(C)[C@H]3CC[C@]12C [UDCA, (4R)-4-[(3R,5S,7S,8R,9S,10S,13R,14S,17R)-3,7-dihydroxy-10,13-dimethyl-2,3,4,5,6,7,8,9,11,12,14,15,16,17-tetradecahydro-1H-cyclopenta[a]phenanthren-17-yl]pentanoic acid] | ++ (moderate edema [++, (the degree of swelling was 20-40% compared to before the injection)]) | ++ (moderate edema [++, (the degree of swelling was 20-40% compared to before the injection)]) | ++ (moderate edema [++, (the degree of swelling was 20-40% compared to before the injection)]) | +++ (severe edema [+++, (the degree of swelling was 40-60% compared to before the injection)]) | ++++ (extremely severe edema [++++, (the degree of swelling was 60% or more compared to before the injection)]) | ++ (moderate edema [++, (the degree of swelling was 20-40% compared to before the injection)]) | ++++ (extremely severe edema [++++, (the degree of swelling was 60% or more compared to before the injection)]) | ++++ (extremely severe edema [++++, (the degree of swelling was 60% or more compared to before the injection)]) | ++ (moderate edema [++, (the degree of swelling was 20-40% compared to before the injection)]) | ++++ (extremely severe edema [++++, (the degree of swelling was 60% or more compared to before the injection)]) | ++++ (extremely severe edema [++++, (the degree of swelling was 60% or more compared to before the injection)]) | ++ (moderate edema [++, (the degree of swelling was 20-40% compared to before the injection)]) | degree of edema in words (paw of the rats; listed as UDCA 1.0%): moderate; degree of edema in words (paw of the rats; listed as UDCA 2.5%): “severe” and “extremely severe”; skin lesion (erythema) in words (sole of the rat paws; listed as UDCA 1.0%): Moderate; skin lesion (erythema) in words (sole of the rat paws; listed as UDCA 2.5%): “severe” and “extremely severe”; grade of skin lesion (erythema), 1 hour after administration (sole of the rat paws; [5]): ++++; grade of skin lesion (erythema), 2 hours after administration (sole of the rat paws; [5]): ++++; grade of skin lesion (erythema), Immediately after administration (sole of the rat paws; [5]): ++; grade of skin lesion (erythema), 1 hour after administration (sole of the rat paws; [6]): ++++; grade of skin lesion (erythema), 2 hours after administration (sole of the rat paws; [6]): ++++; grade of skin lesion (erythema), Immediately after administration (sole of the rat paws; [6]): ++; Inflammation (H&E), BA % (w/v) 1.0 [2]: +++ |
